Laboratory results from ChEMBL document CHEMBL1151240, “A new dimension to the biosynthetic products isolated from the sponge Negombata magnifica” (2004).
Active and inactive are the calls of the source. No cut-off for these calls is given here.

The compounds below were run on A10 (assay: Disruption of actin cytoskeleton in rat A10 cells upto 10 ug/ml by rhodamine-phalloidin assay).
Format: functional

SMILES	Activity
C/C1=C/C(=O)O[C@@H]2C[C@@H](CC[C@H](C)/C=C\CC1)O[C@@](O)([C@@H]1CSC(=O)N1)C2 [LATRUNCULIN B]	0.5 µg/mL
C/C(=C/C(=O)O)CC/C=C\[C@@H](C)CC[C@@H]1CC=CC(=O)O1	inactive
C/C1=C/C(=O)O[C@@H]2C[C@@H](CC[C@H](C)/C=C\CC1)O[C@@](O)([C@H]1CSC(=O)N1)C2 [16-EPI-LATRUNCULIN B]	5 µg/mL
CO[C@]1([C@@H]2CSC(=O)N2)C[C@H]2C[C@@H](CC[C@H](C)/C=C\CC/C(C)=C\C(=O)O2)O1	inactive
C/C1=C/C(=O)O[C@@H]2C[C@@H](CC[C@H](C)/C=C\C=C\CC1)O[C@@](O)([C@@H]1CSC(=O)N1)C2 [LATRUNCULIN A]	0.5 µg/mL
